In patent US7094781B2, “Sulfamides and their use as endothelin receptor antagonists” (Actelion Pharmaceuticals Ltd., priority 2000, dated 2006):

Experiments:
[1] = target: T1, human recombinant ETA receptor (Homo sapiens, UniProt P25101); assay: Inhibition of [125I]ET-1 binding to membranes from CHO cells carrying human ETA receptors
T1 construct: expressed in transfected cells; host or cells: CHO cells (microsomal membranes)
T1 sequence (P25101 21-427): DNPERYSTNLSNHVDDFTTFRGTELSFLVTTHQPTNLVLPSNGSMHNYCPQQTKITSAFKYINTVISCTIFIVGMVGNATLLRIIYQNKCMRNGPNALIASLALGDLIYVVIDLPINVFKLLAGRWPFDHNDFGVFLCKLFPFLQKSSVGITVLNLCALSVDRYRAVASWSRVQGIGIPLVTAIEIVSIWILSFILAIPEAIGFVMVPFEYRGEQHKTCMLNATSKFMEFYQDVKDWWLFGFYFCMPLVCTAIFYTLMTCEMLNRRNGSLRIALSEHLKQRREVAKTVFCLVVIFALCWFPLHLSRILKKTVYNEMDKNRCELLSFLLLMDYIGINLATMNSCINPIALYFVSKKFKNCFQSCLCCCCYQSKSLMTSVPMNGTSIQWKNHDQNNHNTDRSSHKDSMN

[2] = target: T2, human recombinant ETB receptor (Homo sapiens, UniProt P24530); assay: Inhibition of [125I]ET-1 binding to membranes from CHO cells carrying human ETB receptors
T2 construct: expressed in transfected cells; host or cells: CHO cells (microsomal membranes)
T2 sequence (P24530 27-442): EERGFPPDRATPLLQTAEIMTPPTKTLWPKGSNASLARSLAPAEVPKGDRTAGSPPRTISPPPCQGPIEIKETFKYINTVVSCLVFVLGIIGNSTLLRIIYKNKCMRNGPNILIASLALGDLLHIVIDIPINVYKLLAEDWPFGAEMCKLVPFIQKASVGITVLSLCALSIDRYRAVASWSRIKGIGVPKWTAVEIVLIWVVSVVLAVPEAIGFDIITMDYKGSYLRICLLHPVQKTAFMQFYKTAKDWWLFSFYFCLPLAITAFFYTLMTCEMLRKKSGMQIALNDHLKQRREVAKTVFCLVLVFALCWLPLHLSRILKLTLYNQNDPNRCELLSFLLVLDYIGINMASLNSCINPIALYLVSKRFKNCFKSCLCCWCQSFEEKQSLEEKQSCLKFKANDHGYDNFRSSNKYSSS

Row | IC50 [1] [nM] | IC50 [2] [nM] | SMILES
1 | 10 | > 1000 | COc1ccccc1Oc1c(NS(=O)(=O)NCc2cccs2)nc(-c2ccncc2)nc1OCCOc1ncc(Br)cn1 [Example 80]
2 | 3.6 | 274 | COc1ccccc1Oc1c(NS(=O)(=O)NCc2cccs2)nc(-c2ccncc2)nc1OCCOC(=O)Nc1ccccn1 [Example 81]
3 | 37 | 574 | COc1ccccc1Oc1c(NS(=O)(=O)NCc2ccccn2)nc(C2CC2)nc1OCCOc1ncc(Br)cn1 [Example 84]
4 | 19 | 621 | COc1cnc(OCCOc2nc(C3CC3)nc(NS(=O)(=O)NCc3ccccc3)c2Oc2ccccc2OC)nc1 [Example 89]
5 | 7.4 | 433 | COc1ccccc1Oc1c(NS(=O)(=O)NCc2ccccc2)nc(C2CC2)nc1OCCOc1ncc(SC)cn1 [Example 90]
6 | 2.5 | 79 | COc1ccccc1Oc1c(NS(=O)(=O)NCc2ccccc2)nc(C2CC2)nc1OCCOC(=O)Nc1ccccn1 [Example 91]
7 | 1.55 | 92 | COc1ccccc1Oc1c(NS(=O)(=O)NCc2ccccc2)ncnc1OCCOc1ncc(SC)cn1 [Example 97]
8 | 2.1 | 159 | COc1ccccc1Oc1c(NS(=O)(=O)NCc2ccccc2)ncnc1OCCOC(=O)Nc1ccccn1 [Example 98]
9 | 1.24 | 335 | COc1cnc(OCCOc2ncnc(NS(=O)(=O)NCc3ccccc3)c2-c2ccc(Br)cc2)nc1 [Example 101]
10 | 0.69 | 203 | CCNS(=O)(=O)Nc1ncnc(OCCOc2ncc(SC)cn2)c1-c1ccc(Br)cc1 [Example 105]
11 | 0.25 | 96 | O=S(=O)(NCC1CC1)Nc1ncnc(OCCOc2ncc(Br)cn2)c1-c1ccc(Br)cc1 [Example 107]
12 | 0.28 | 56 | CSc1cnc(OCCOc2ncnc(NS(=O)(=O)NCC3CC3)c2-c2ccc(Br)cc2)nc1 [Example 108]
13 | 1.94 | > 1000 | O=S(=O)(NCc1ccccc1)Nc1nc(-c2ccncc2)nc(OCCOc2ncc(Br)cn2)c1-c1ccc(Cl)cc1 [Example 109]
14 | 2.3 | > 1000 | CSc1cnc(OCCOc2nc(-c3ccncc3)nc(NS(=O)(=O)NCc3ccccc3)c2-c2ccc(Cl)cc2)nc1 [Example 110]
15 | 12.3 | 3750 | COc1cnc(OCCOc2nc(-c3ccncc3)nc(NS(=O)(=O)NCc3ccccc3)c2-c2ccc(Cl)cc2)nc1 [Example 111]
16 | 0.52 | 257 | O=S(=O)(NCC1CC1)Nc1ncnc(OCCOc2ncc(Br)cn2)c1-c1ccc(Cl)cc1 [Example 112]
17 | 4.26 | 581 | COc1cnc(OCCOc2ncnc(NS(=O)(=O)NCC3CC3)c2-c2ccc(Cl)cc2)nc1 [Example 113]
18 | 8.3 | > 1000 | O=S(=O)(Nc1ncnc(OCCOc2ncc(Br)cn2)c1-c1ccc(Cl)cc1)NC1CC1 [Example 114]
19 | 2.2 | > 1000 | CCNS(=O)(=O)Nc1ncnc(OCCOc2ncc(Br)cn2)c1-c1ccc(Cl)cc1 [Example 115]
20 | 1.3 | 567 | CCNS(=O)(=O)Nc1ncnc(OCCOc2ncc(SC)cn2)c1-c1ccc(Cl)cc1 [Example 116]
21 | 0.45 | 518 | CCCCNS(=O)(=O)Nc1ncnc(OCCOc2ncc(Br)cn2)c1-c1ccc(Cl)cc1 [Example 117]
22 | 0.34 | 611 | CCCCNS(=O)(=O)Nc1ncnc(OCCOc2ncc(SC)cn2)c1-c1ccc(Cl)cc1 [Example 118]
23 | 2.9 | 124 | COc1ccccc1Oc1c(NS(=O)(=O)NCC2CC2)nc(-c2ccncc2)nc1OCCOc1ncc(Br)cn1 [Example 123]
24 | 7.3 | 102 | COc1cnc(OCCOc2nc(-c3ccncc3)nc(NS(=O)(=O)NCC3CC3)c2Oc2ccccc2OC)nc1 [Example 124]
25 | 7.3 | 87 | COc1cnc(OCCOc2nc(-c3ncccn3)nc(NS(=O)(=O)NCC3CC3)c2Oc2ccccc2OC)nc1 [Example 127]
26 | 3.7 | 347 | COc1ccccc1Oc1c(NS(=O)(=O)NCC2CCCCC2)nc(-c2ccncc2)nc1OCCOc1ncc(Br)cn1 [Example 130]
27 | 3.2 | 233 | COc1cnc(OCCOc2nc(-c3ccncc3)nc(NS(=O)(=O)NCC3CCCCC3)c2Oc2ccccc2OC)nc1 [Example 131]

Row | IC50 [1] [nM] | IC50 [2] [nM] | SMILES
28 | 2.4 | 187 | COc1cnc(OCCOc2nc(-c3ncccn3)nc(NS(=O)(=O)NCC3CCCCC3)c2Oc2ccccc2OC)nc1 [Example 134]
29 | 2.6 | 108 | COc1ccccc1Oc1c(NS(=O)(=O)NCc2ccc(F)cc2)nc(-c2ncccn2)nc1OCCOc1ncc(Br)cn1 [Example 142]
30 | 3.1 | 35 | COc1cnc(OCCOc2nc(-c3ncccn3)nc(NS(=O)(=O)NCc3ccc(F)cc3)c2Oc2ccccc2OC)nc1 [Example 143]
31 | 1.64 | > 1000 | Cc1ccc(-c2c(NS(=O)(=O)NCc3ccc4c(c3)OCO4)ncnc2OCCOc2ncc(Br)cn2)cc1 [Example 145]
32 | 5 | 514 | COc1cnc(OCCOc2ncnc(NS(=O)(=O)NCc3ccc4c(c3)OCO4)c2-c2ccc(C)cc2)nc1 [Example 146]
33 | 1.2 | 408 | CSc1cnc(OCCOc2ncnc(NS(=O)(=O)NCc3ccc4c(c3)OCO4)c2-c2ccc(C)cc2)nc1 [Example 147]
34 | 15 | 1320 | COc1ccccc1Oc1c(NS(=O)(=O)NCc2ccc3c(c2)OCO3)nc(-c2ccncc2)nc1OC [Example 149]
35 | 0.77 | 57 | COc1ccc(Cl)c(Oc2c(NS(=O)(=O)NCc3ccc4c(c3)OCO4)ncnc2OCCOc2ncc(Br)cn2)c1 [Example 151]
36 | 1.1 | 79 | COc1cnc(OCCOc2ncnc(NS(=O)(=O)NCc3ccc4c(c3)OCO4)c2Oc2cc(OC)ccc2Cl)nc1 [Example 152]
37 | 5.8 | 173 | COc1ccccc1Oc1c(NS(=O)(=O)NCc2ccccn2)nc(-c2ncccn2)nc1OCCOc1ncc(SC)cn1 [Example 155]
38 | 18 | 409 | COc1ccccc1Oc1c(NS(=O)(=O)NCc2ccccn2)nc(-c2ncccn2)nc1OCCOc1ncc(Br)cn1 [Example 156]
39 | 42.2 | 954 | COc1ccccc1Oc1c(NS(=O)(=O)NCc2ccccn2)nc(-c2ncccn2)nc1OCCOc1nccs1 [Example 157]
40 | 10 | 80 | COc1ccccc1Oc1c(NS(=O)(=O)NCc2ccccn2)nc(-c2ccncc2)nc1OCCOc1ncc(SC)cn1 [Example 158]
41 | 11 | 3220 | C#CCOc1nc(-c2ccncc2)nc(NS(=O)(=O)NCc2ccc(OC)cc2)c1Oc1ccccc1OC [Example 160]
42 | 0.44 | 80 | COc1ccc(CNS(=O)(=O)Nc2ncnc(OCCOc3ncc(Br)cn3)c2Oc2cc(OC)ccc2Cl)cc1 [Example 163]
43 | 1 | 81 | COc1ccc(CNS(=O)(=O)Nc2ncnc(OCCOc3ncc(OC)cn3)c2Oc2cc(OC)ccc2Cl)cc1 [Example 164]
44 | 1 | 3 | COc1ccc(CNS(=O)(=O)Nc2nc(-c3ncccn3)nc(OCCOc3ncc(Br)cn3)c2Oc2ccccc2OC)cc1OC [Example 166]
45 | 5.2 | 6.4 | COc1ccc(CNS(=O)(=O)Nc2nc(-c3ncccn3)nc(OCCOc3ncccn3)c2Oc2ccccc2OC)cc1OC [Example 167]
46 | 2.7 | 1.6 | COc1ccc(CNS(=O)(=O)Nc2nc(-c3ncccn3)nc(OCCOC(=O)Nc3ccccc3)c2Oc2ccccc2OC)cc1OC [Example 168]
47 | 1.7 | 42 | COc1cccc(CNS(=O)(=O)Nc2nc(-c3ncccn3)nc(OCCOc3ncc(Br)cn3)c2Oc2ccccc2OC)c1 [Example 170]
48 | 11 | 61 | COc1cccc(CNS(=O)(=O)Nc2nc(-c3ncccn3)nc(OCCOc3ncccn3)c2Oc2ccccc2OC)c1 [Example 171]
49 | 3 | 16 | COc1cccc(CNS(=O)(=O)Nc2nc(-c3ncccn3)nc(OCCOC(=O)Nc3ccccc3)c2Oc2ccccc2OC)c1 [Example 172]
50 | 3.7 | 93 | COc1ccccc1CNS(=O)(=O)Nc1nc(-c2ncccn2)nc(OCCOc2ncc(Br)cn2)c1Oc1ccccc1OC [Example 174]
51 | 22 | 62 | COc1ccccc1CNS(=O)(=O)Nc1nc(-c2ncccn2)nc(OCCOc2ncccn2)c1Oc1ccccc1OC [Example 175]
52 | 2.5 | 22 | COc1ccccc1CNS(=O)(=O)Nc1nc(-c2ncccn2)nc(OCCOC(=O)Nc2ccccc2)c1Oc1ccccc1OC [Example 176]
53 | 14.3 | 224 | COc1ccccc1Oc1c(NS(=O)(=O)NCCc2ccccc2)nc(-c2ccncc2)nc1OCCOC(=O)Nc1ccccc1 [Example 181]
